Like-named read-outs stand apart in the source and are kept apart here.
Key:
[1] = test system: S. japonicum adult; test: In vitro adult S. japonicum worm assay; format: cell-based; settings: for EC50: Schistosoma japonicum, S. japonicum, 120 h incubation, read-out: Sj adult EC50; for Potency ratio Sj/Sm: adult EC50 S. japonicum / S. mansoni
Excerpt: The Puerto Rican strain of S. mansoni was maintained in Biomphalaria glabrata and CD1 mice. Oncomelania hupensis (hupensis) infected with S. japonicum (Chinese strain) and Bulinus truncatus (truncatus) infected with Egyptian strain S. haematobium were obtained from BEI Resources, NIAID, NIH. Infection of mice for worm recovery was as previously described except that, whereas cercariae of S. mansoni and S. haematobium were obtained by shedding from infected snails under lights, cercariae of S. japonicum were obtained by gently crushing the snails. Furthermore, adult S. haematobium were recovered after 12 weeks following mouse infection.
In vitro efficacy was carried out as previously described. In brief, worms were recovered from infected mice by portal perfusion 3 weeks (for juveniles) or 6 weeks (for adults) post-infection using warm perfusion medium (Dulbecco’s Modified Eagle’s Medium [DMEM], 2mM L-glutamine, 100 Units/ml penicillin, 100μg/ml streptomycin, 20mM Hepes, 10 Units/ml heparin [Sigma, UK]). Worms were washed free of red blood cells using the perfusion medium, and finally suspended in complete medium (cDMEM: DMEM, 2mM L-glutamine, 100 Units/ml penicillin, 100μg/ml streptomycin, 10% FCS). The juvenile assays were carried out in 96-well plates, each well containing 6–8 worms in 200 μL cDMEM. The adult worm assay was in 24-well plates, each well containing 3 worm pairs in 1mL cDMEM. Both the juvenile and adult worm cultures were kept at 37° C, in an atmosphere of 5% CO2. Drug effects were determined on day 5 following drug treatment by assessing the viability of individual worms as described in [14].

[2] = test system: panel of 50 human kinases; test: Kinase panel activity; format: biochemical; settings: 1 μM
Description: Kinase panel activity: Activity of compounds at 1 μM was assessed against a panel of 50 kinase enzymes (MKK1, JNK1, p38a MAPK, RSK1, PDK1, PKBa, SGK1, S6K1, PKA, ROCK 2, PRK2, PKCa, PKD1, MSK1, CAMKKb, CAMK1, SmMLCK, CHK2, GSK3b, PLK1, Aurora B, LKB1, AMPK (hum), MARK3, CK1δ, CK2, DYRK1A, NEK6, TBK1, PIM1, SRPK1, EF2K, HIPK2, PAK4, MST2, MLK3, TAK1, IRAK4, RIPK2, TTK, Src, Lck, BTK, JAK3, SYK, EPH-A2, HER4, IGF-1R, TrkA, VEG-FR) carried out by the MRC Protein Phosphorylation and Ubiquitinylation Unit at the University of Dundee, Dundee, DD1 5EH, UK.

[3] = test system: S. mansoni adult worms; test: In vivo efficacy, mouse model of adult (42-day old) S. mansoni infection
Description: (§1) Prior to in vivo efficacy experiments, a single animal was given a dose of drug (using the same formulation) that was twice as large as that planned for use in the efficacy experiments and was observed periodically for adverse clinical signs for 24h by trained veterinarians. Adverse clinical signs checked include postural defect, vocalization, oculo-nasal discharge, hypersalivation, change in activity, abnormal gait, respiration and pulse, piloerection, loss of pupillary reflex, eyelid reflex, chromodacryorrhea, reaction to handling, tremor, convulsions, prostration, diarrhoea, cachexia, emaciation. […] In vivo efficacy was assessed in female CD1 mice using methods based on those previously described. Mice were infected subcutaneously with 150 cercariae. Test compounds were suspended in 7% Tween-80 / 3% Ethanol / double distilled water and drug dispersal was facilitated by vortexing and using a sonicating water bath (Formulation “Aqueous”). Alternatively, drugs were first dissolved in DMSO, then diluted with corn oil to give a 1:19 DMSO:corn oil solution/suspension of test compound (Formulation “Corn oil”). Dosing was by oral gavage. Mice in the negative control groups were given the drug suspension vehicle only. Positive controls for treatment of adult, day 42 old, infections were treated with PZQ and those for juvenile, day 21 old, infections with artemether, which unlike PZQ is effective against the juvenile worm infections in mice. During and following treatment, mice were closely observed for any ill effects by staff experienced in animal handling. This involved individuals who were blinded to the treatment groups. Effects they were trained to look for included hunching, immobility, piloerection, subdued behaviour, diarrhoea and loss of body condition. None were seen. Worms were recovered by portal perfusion with citrate saline 8–14 days post treatment and counted. Differences between groups relative to the non-drug treated controls were assessed for statistical significance by Student’s unpaired t-test using GraphPad Prism Software. P values are presented as follows:- ns–P > 0.05 (not significant), * P ≤ 0.05, ** P ≤ 0.01, *** P ≤ 0.001, **** P ≤ 0.0001.
(§2) For pharmacokinetic analysis during the in vivo efficacy experiments individual animals were only sampled once. Samples were taken from one animal in each experimental group at each of 1, 4, 8 h and samples from two animals in each group were taken at 24 h.

[4] = as above; settings: female, CD1, mouse, plasma, po, mouse, Adult infection, read-out: Plasma conc @24 h (efficacy experiment)
Description: as §1, §2

[5] = Observation of mice for adverse clinical signs / ill effects; format: in vivo; settings: 200 mg/kg single oral dose, one mouse 400 mg/kg
Description: Prior to in vivo efficacy experiments, a single animal was given a dose of drug (using the same formulation) that was twice as large as that planned for use in the efficacy experiments and was observed periodically for adverse clinical signs for 24h by trained veterinarians. Adverse clinical signs checked include postural defect, vocalization, oculo-nasal discharge, hypersalivation, change in activity, abnormal gait, respiration and pulse, piloerection, loss of pupillary reflex, eyelid reflex, chromodacryorrhea, reaction to handling, tremor, convulsions, prostration, diarrhoea, cachexia, emaciation. […] In vivo efficacy was assessed in female CD1 mice using methods based on those previously described. Mice were infected subcutaneously with 150 cercariae. Test compounds were suspended in 7% Tween-80 / 3% Ethanol / double distilled water and drug dispersal was facilitated by vortexing and using a sonicating water bath (Formulation “Aqueous”). Alternatively, drugs were first dissolved in DMSO, then diluted with corn oil to give a 1:19 DMSO:corn oil solution/suspension of test compound (Formulation “Corn oil”). […] Worms were recovered by portal perfusion with citrate saline 8–14 days post treatment and counted. Differences between groups relative to the non-drug treated controls were assessed for statistical significance by Student’s unpaired t-test using GraphPad Prism Software. […]

[6] = target: T1, hERG (Homo sapiens, UniProt Q12809); test: Ion channel activity (Metrion), hERG, QPatch; format: cell-based; settings: dose-response up to 10 μM
T1 construct: Metrion biosciences
T1 sequence (Q12809 whole entry): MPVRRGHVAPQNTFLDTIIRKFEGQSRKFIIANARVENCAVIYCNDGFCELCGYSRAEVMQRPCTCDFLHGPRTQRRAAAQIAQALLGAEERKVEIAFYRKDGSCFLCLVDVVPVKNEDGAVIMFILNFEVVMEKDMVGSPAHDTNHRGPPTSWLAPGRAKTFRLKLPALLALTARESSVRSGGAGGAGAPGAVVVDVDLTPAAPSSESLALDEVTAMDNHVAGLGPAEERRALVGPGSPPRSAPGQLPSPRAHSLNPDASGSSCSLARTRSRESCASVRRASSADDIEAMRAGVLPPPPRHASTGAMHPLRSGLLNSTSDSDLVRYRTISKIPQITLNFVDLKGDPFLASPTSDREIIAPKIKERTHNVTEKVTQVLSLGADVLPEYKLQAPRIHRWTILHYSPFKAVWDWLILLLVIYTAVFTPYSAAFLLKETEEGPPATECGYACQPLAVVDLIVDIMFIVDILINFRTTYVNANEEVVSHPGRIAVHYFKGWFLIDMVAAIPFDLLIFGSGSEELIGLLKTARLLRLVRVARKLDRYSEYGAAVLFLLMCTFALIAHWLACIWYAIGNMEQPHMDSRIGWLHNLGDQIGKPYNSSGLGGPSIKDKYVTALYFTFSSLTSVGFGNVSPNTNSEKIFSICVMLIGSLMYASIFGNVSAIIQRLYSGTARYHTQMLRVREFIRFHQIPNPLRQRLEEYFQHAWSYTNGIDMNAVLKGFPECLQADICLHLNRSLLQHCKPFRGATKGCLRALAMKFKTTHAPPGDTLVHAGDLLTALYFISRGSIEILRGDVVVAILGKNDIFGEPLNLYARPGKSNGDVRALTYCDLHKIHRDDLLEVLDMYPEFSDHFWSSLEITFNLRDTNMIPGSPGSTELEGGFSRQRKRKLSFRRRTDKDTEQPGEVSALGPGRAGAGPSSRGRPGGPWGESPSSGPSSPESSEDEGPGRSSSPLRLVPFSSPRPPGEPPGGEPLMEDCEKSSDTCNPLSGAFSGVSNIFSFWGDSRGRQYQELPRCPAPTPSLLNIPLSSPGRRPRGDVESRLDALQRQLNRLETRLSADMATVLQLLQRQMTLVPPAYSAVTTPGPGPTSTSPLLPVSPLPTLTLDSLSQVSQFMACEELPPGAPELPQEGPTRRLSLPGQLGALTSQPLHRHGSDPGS
Description: (§3) Ion channel activity. Activity of compounds against ion channels was assessed by Metrion biosciences, Cambridge, CB21 6AD, UK in dose-response experiments (n = 2) up to 10 μM compound concentration with standards & equipment as listed for each ion channel (hERG–verapamil—QPatch, Nav1.5 –amitryptiline—QPatch, Kv1.5 –transDSC—QPatch, Cav1.2 –nimodipine—Flex).

[7] = target: T2, Nav1.5 (Homo sapiens, UniProt Q14524); test: Ion channel activity (Metrion), Nav1.5, QPatch; format: cell-based; settings: dose-response up to 10 μM
T2 construct: Metrion biosciences
T2 sequence (Q14524 whole entry): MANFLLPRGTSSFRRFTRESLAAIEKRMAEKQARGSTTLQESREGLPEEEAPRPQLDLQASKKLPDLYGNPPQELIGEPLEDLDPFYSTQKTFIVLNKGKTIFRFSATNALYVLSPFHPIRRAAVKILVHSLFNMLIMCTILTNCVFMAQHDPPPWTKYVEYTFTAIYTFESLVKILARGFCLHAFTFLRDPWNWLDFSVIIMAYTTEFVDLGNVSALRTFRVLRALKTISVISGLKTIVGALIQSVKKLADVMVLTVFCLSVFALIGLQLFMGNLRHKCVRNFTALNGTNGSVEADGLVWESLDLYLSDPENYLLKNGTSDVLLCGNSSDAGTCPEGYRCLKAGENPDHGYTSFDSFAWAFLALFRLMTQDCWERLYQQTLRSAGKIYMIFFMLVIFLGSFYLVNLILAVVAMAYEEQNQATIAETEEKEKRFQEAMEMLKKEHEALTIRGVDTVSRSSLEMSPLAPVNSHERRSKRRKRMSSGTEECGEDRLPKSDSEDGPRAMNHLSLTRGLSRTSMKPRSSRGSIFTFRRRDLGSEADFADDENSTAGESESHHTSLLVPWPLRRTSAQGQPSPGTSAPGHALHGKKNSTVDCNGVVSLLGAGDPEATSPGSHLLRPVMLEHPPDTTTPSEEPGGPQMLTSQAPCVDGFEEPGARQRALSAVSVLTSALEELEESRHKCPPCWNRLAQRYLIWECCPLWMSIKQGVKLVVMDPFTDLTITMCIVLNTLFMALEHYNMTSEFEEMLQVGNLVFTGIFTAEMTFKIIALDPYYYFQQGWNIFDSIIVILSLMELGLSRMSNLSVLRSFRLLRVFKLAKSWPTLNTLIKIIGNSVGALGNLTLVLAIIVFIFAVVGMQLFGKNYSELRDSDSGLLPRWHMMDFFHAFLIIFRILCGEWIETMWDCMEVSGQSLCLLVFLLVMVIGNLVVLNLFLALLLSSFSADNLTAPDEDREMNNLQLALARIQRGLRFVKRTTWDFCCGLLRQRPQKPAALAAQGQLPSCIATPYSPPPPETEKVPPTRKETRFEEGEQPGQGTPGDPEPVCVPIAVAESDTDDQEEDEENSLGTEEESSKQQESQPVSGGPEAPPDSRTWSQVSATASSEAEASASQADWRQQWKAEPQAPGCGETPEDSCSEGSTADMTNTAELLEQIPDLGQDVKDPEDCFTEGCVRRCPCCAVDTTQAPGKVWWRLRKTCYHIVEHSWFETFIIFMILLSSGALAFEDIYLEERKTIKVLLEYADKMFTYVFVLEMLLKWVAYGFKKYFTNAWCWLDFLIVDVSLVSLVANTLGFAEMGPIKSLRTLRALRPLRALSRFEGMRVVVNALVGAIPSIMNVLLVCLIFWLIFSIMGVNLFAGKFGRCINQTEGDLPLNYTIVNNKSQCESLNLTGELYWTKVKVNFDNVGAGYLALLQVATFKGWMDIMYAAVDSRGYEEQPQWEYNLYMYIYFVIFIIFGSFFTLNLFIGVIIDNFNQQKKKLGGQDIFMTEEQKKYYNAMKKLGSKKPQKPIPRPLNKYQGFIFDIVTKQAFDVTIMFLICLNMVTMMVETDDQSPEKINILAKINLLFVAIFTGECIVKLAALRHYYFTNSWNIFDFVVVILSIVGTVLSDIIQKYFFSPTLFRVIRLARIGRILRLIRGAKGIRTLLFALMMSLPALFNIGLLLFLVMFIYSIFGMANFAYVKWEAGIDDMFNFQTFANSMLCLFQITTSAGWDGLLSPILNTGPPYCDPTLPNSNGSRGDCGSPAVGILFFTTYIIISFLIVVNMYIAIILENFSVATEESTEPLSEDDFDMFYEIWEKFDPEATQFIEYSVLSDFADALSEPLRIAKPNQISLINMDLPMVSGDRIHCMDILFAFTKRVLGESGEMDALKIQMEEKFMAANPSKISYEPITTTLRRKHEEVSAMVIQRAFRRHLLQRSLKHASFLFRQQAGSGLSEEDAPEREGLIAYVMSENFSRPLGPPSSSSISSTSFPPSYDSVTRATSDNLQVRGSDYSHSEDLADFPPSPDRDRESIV
Description: as §3

[8] = target: T3, Cav1.2 (Homo sapiens, UniProt Q13936); test: Ion channel activity (Metrion), Cav1.2, Flex; format: cell-based; settings: dose-response up to 10 μM
T3 construct: Metrion biosciences
Description: as §3

[9] = Stability in phosphate buffer and simulated gastric fluid; format: physicochemical; settings: for degradation in simulated gastric fluid: pH 1.2, 37°C for 3 h; for degradation in phosphate buffer: pH 8.0, 37°C for 3 h
[10] = Stability in plasma; format: in vitro ADME; settings: 37°C for 3 h
[11] = target: T4, Kv1.5 (Homo sapiens, UniProt P22460); test: Ion channel activity (Metrion), Kv1.5, QPatch; format: cell-based; settings: dose-response up to 10 μM
T4 construct: Metrion biosciences
T4 sequence (P22460 whole entry): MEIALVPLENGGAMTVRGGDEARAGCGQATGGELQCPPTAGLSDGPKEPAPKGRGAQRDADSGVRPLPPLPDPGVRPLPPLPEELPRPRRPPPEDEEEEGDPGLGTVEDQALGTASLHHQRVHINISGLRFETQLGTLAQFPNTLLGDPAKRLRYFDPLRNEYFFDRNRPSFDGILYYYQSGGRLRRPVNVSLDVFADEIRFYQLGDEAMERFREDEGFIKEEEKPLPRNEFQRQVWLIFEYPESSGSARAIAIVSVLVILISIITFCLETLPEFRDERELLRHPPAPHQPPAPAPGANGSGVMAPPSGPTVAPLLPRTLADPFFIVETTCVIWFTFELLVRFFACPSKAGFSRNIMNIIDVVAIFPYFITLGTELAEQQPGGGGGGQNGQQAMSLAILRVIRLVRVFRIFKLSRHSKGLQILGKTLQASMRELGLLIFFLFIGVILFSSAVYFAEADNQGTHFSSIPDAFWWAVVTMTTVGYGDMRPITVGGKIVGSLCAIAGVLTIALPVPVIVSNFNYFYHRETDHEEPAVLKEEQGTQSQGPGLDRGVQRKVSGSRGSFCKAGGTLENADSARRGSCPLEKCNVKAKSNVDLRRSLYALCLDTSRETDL
Description: as §3

Row | SMILES | EC50 [1] | Potency ratio Sj/Sm [1] | inhibition, panel of 50 human kinases [2] | inhibition of hERG [6] | inhibition of Nav1.5 [7] | inhibition of Cav1.2 [8] | degradation in simulated gastric fluid [9] | degradation in phosphate buffer [9] | degradation in plasma [10] | inhibition of Kv1.5 [11] | also measured
1 | CC(C)c1nc2cnc(-c3ccc(F)c(C(F)(F)F)c3)cn2c1-c1c(F)cc(O)cc1F [LSHTM-3520] | 73.5 nM | 1.6 | ≤ 25% | – | – | – | – | – | – | – | reducing the S. mansoni worm count ([3]; mice infected for 42 days (adult worms), 200 mg/kg single oral dose): highly effective; Worms remaining ([3]; mouse, Adult infection, oral 200 mg/kg, formulation Aq): 1%; Plasma conc @24 h (efficacy experiment) ([3]; mouse, Adult infection, oral 200 mg/kg, formulation Aq, 200 mg/kg): 1,907 ng/mL; concentration at 24 h ([4]; 200 mg/kg, oral 200 mg/kg, formulation Aq): 2000 ng/mL; issues observed with the animals exposed [5]: no issues observed
2 | CC(C)c1nc2cnc(-c3ccc(F)c(C(F)(F)F)c3)cn2c1-c1ccc2[nH]ncc2c1F [LSHTM-3604] | – | – | ≤ 25% | – | – | – | – | – | – | – | –
3 | Fc1c(-c2c(C(F)(F)F)nc3cnc(-c4cccc(C(F)(F)C(F)(F)F)c4)cn23)ccc2[nH]ncc12 [LSHTM-3608] | 95.2 nM | 6.2 | – | – | – | – | – | – | – | – | –
4 | Fc1ccc(-c2cn3c(-c4ccc5[nH]ncc5c4F)c(C(F)(F)F)nc3cn2)cc1C(F)(F)F [LSHTM-3642, 3-(4-fluoro-1H-indazol-5-yl)-6-(4-fluoro-3-(trifluoromethyl)phenyl)-2-(trifluoromethyl)imidazo[1,2-a]pyrazine] | 389 nM | – | ≤ 25% | – | – | – | – | – | – | – | in vivo EC50 against adult worms ([3]; mouse model, single oral dose (Fig 9A)): < 6.25 mg/kg; Worms remaining ([3]; mouse, Adult infection, oral 12.5 mg/kg, formulation Aq): 1%; concentration at 24 h ([4]; 12.5 mg/kg, oral 12.5 mg/kg, formulation Aq): 939 ng/mL
5 | Fc1ccc(-c2cn3c(-c4ccc5[nH]ncc5c4F)c(C(F)(F)F)nc3cn2)cc1C(F)(F)C(F)(F)F [LSHTM-3645] | 129 nM | 13.3 | – | Neither LSHTM-3645 nor LSHTM-3686 showed any inhibition | Neither LSHTM-3645 nor LSHTM-3686 showed any inhibition | Neither LSHTM-3645 nor LSHTM-3686 showed any inhibition | No degradation | No degradation | No degradation | Neither LSHTM-3645 nor LSHTM-3686 showed any inhibition | Worms remaining ([3]; mouse, Adult infection, oral 6.25 mg/kg, formulation corn oil): 1%; efficacy against adult worm infections ([3]; mouse, single oral dose (Fig 9B)): highly effective; concentration at 24 h ([4]; 6.25 mg/kg, oral 6.25 mg/kg, formulation corn oil): 1010 ng/mL
6 | CC(C)c1cc(-c2cn3c(-c4ccc5[nH]ncc5c4F)c(C4CC4)nc3cn2)ccc1F [LSHTM-3686] | 46.9 nM | 8.7 | – | Neither LSHTM-3645 nor LSHTM-3686 showed any inhibition | Neither LSHTM-3645 nor LSHTM-3686 showed any inhibition | Neither LSHTM-3645 nor LSHTM-3686 showed any inhibition | No degradation | No degradation | No degradation | Neither LSHTM-3645 nor LSHTM-3686 showed any inhibition | Worms remaining ([3]; mouse, Adult infection, oral 6.25x2 mg/kg (12 h apart), formulation corn oil): 2.4%; concentration at 24 h ([4]; oral 6.25x2 mg/kg (12 h apart), formulation corn oil): 241 ng/mL

Reference: paper PMC8321398, “The discovery of a novel series of compounds with single-dose efficacy against juvenile and adult Schistosoma species” (PLoS Neglected Tropical Diseases, 2021)
